# Laboratory results reported in paper PMC10100342, “Thiamyxins: Structure and Biosynthesis of Myxobacterial RNA‐Virus Inhibitors” (Angewandte Chemie (International Ed. in English), 2022).
# Where “and” joins values, the source holds several entries; their conditions need not be identical. Identical values can stand only once. Like-named read-outs stand apart in the source and are kept apart here.
# Tests used:
# hCoV-229E-luc = assay: organism not typed; type: cell-based, alphacoronavirus HCoV-229E
# in vitro [1] = conditions: human
# Bacillus subtilis DSM-10 = assay: Antimicrobial activity (MIC); conditions: DSM10, read-out: MIC Bacillus subtilis DSM-10
# Mucor hiemalis DSM-2656 = assay: Antimicrobial activity (MIC); conditions: DSM2656, read-out: MIC Mucor hiemalis DSM-2656
# [2] = system: Candida. albicans DSM-1665; assay: Antimicrobial activity (MIC); conditions: DSM1665, read-out: MIC Candida. albicans DSM-1665
# [3] = system: Micrococcus luteus DSM-1790; assay: Antimicrobial activity (MIC); conditions: DSM1790, read-out: MIC Micrococcus luteus DSM-1790
# [4] = system: Candida albicans, Mucor hiemalis, Bacillus subtilis and Micrococcus luteus; assay: Antimicrobial test panel (whole-panel statements); conditions: in the tested concentrations
# Protocol: All thiamyxins except congener A, which was only produced in low amounts, were tested against two
# Gram-positive and two fungal pathogens.
# ZIKV-H/PF/2013 = assay: microbe, parasite or virus in culture; type: cell-based; conditions: Zika virus, Huh-7, 48 h, read-out: IC50 against ZIKV-H/PF/2013
# DENV-R2A [5] = conditions: CC50 Huh-7 versus IC50 DENV-R2A
# in vitro [6] = conditions: human; remark: listed apart in the source
# DENV-R2A [7] = assay: microbe, parasite or virus in culture; conditions: Dengue virus, Huh-7, 48 h, read-out: IC50 against DENV-R2A
# [8] = Cell viability (CellTiter Glo) of Huh-7 cells in parallel to ZIKV antiviral test; conditions: human
# [9] = Huh-7.5/Fluc cells, 48 h, 33 °C, Renilla luciferase, read-out: IC50 against hCoV-229E-luc
# [10] = read-out: IC50 against hCoV-229E-luc, Huh-7.5/Fluc cells, 48 h, 33 °C, Renilla luciferase
Compound,IC50 (hCoV-229E-luc; [9]) [µM],CC50 (Huh-7.5 Fluc infected) [µM],IC50 (hCoV-229E-luc; [10]) [µM],CC50 (in vitro [1]) [µM],MIC (Bacillus subtilis DSM-10) [µg/mL],MIC (Mucor hiemalis DSM-2656) [µg/mL],MIC [2] [µg/mL],MIC [3] [µg/mL],IC50 (ZIKV-H/PF/2013) [µM],IC50 (DENV-R2A [7]) [µM],also measured
COC(=O)/C=C(\OC)[C@H](C)[C@H](/C=C/c1csc(CCCCCCCC(C)C)n1)OC [Fulvuthiacene A],1.95,> 10,–,–,–,–,–,–,–,–,–
C=C(NC(=O)C1(C)CSC(c2csc(C3(C)CSC(C(NC(=O)C(C)NC(=O)C(=CC(C)C)CO)C(C)CC)=N3)n2)=N1)C(=O)NC(COC)C(=O)N(C)C(c1nc(C(=O)OCC(O)CO)cs1)C(C)C (stereo not drawn) [Thiamyxin D],–,–,> 10,> 10,> 64,> 64,> 64,> 64,–,–,"IC50 (hCoV-229E-luc; read-out: IC50 against hCoV-229E-luc, Huh-7.5/Fluc cells, 48 h, 33 °C, Renilla luciferase, listed as KH_Mx152_1050): 23.1 µM; IC50 (hCoV-229E-luc; read-out: IC50 against hCoV-229E-luc, Huh-7.5/Fluc cells, 48 h, 33 °C, Renilla luciferase, listed as thiamyxin D): ~20 µM and ~23.1 µM; effect on the antimicrobial test panel in words [4]: did not show effects"
C=C1NC(=O)C2(C)CSC(=N2)c2csc(n2)C2(C)CSC(=N2)C(C(C)CC)NC(=O)C(C)NC(=O)C(=CC(C)C)COC(=O)c2csc(n2)C(C(C)C)N(C)C(=O)C(COC)NC1=O (stereo not drawn) [Thiamyxin B],–,–,2.39,–,> 64,> 64,64,> 64,1.07,0.56,"CC50 (Huh-7.5 Fluc infected; human): > 10 µM; difference between IC50 and CC50, DENV-R2A assay (DENV-R2A [5]): fourfold; CC50 at 48 h (in vitro [6]): 2.25 µM; CC50 at 48 h [8]: 2.25 µM"
Chondrosarid B,4.19,> 10,–,–,–,–,–,–,–,–,–
C=C(NC(=O)C1(C)CSC(c2csc(C3(C)CSC(C(NC(=O)C(C)NC(=O)C(=CC(C)C)CO)C(C)CC)=N3)n2)=N1)C(=O)NC(COC)C(=O)N(C)C(c1nc(C(=O)O)cs1)C(C)C (stereo not drawn) [Thiamyxin C],–,–,> 10,> 10,64,64,> 64,32,> 15,14.6,"IC50 (hCoV-229E-luc; read-out: IC50 against hCoV-229E-luc, Huh-7.5/Fluc cells, 48 h, 33 °C, Renilla luciferase, listed as KH_Mx152_976): 20.5 µM; IC50 (hCoV-229E-luc; read-out: IC50 against hCoV-229E-luc, Huh-7.5/Fluc cells, 48 h, 33 °C, Renilla luciferase, listed as thiamyxin C): ~20 µM and ~20.5 µM; CC50 at 48 h [8]: > 50 µM"
COC(=O)/C=C(\OC)[C@H](C)[C@H](/C=C/c1csc(CCCCCC(C)C)n1)OC [Fulvuthiacene B],0.97,> 10,–,–,–,–,–,–,–,–,–
C=C1NC(=O)C2(C)CSC(=N2)c2csc(n2)C2(C)CSC(=N2)C(C(C)CC)NC(=O)C(C)NC(=O)C(=CC(C)C)COC(=O)c2csc(n2)C(C(C)C)N(C)C(=O)C(COC)NC1=O (stereo not drawn) [Thiamyxin A],–,–,2.47,> 10,–,–,–,–,–,–,"IC50 (hCoV-229E-luc; Huh7.5, 48 h, read-out: IC50 against hCoV-229E-luc, Huh-7.5/Fluc cells, 48 h, 33 °C, Renilla luciferase): 2.49 µM"
"NC(=O)c1ncn([C@@H]2O[C@H](CO)[C@@H](O)[C@H]2O)n1 [ribavirin, reference compound]",–,–,–,–,–,–,–,–,2.5,2.3,–
